We go through four compounds from US20110212950A1, “4,4-DISUBSTITUTED PIPERIDINES” (NOVARTIS AG, priority 2007, published 2011).

This experiment has as its target T1, renin (Homo sapiens, UniProt P00797).
T1 construct: This test measures the formation of angiotensin I in human plasma; from tissue; host or cells: human plasma
T1 sequence (P00797 67-406): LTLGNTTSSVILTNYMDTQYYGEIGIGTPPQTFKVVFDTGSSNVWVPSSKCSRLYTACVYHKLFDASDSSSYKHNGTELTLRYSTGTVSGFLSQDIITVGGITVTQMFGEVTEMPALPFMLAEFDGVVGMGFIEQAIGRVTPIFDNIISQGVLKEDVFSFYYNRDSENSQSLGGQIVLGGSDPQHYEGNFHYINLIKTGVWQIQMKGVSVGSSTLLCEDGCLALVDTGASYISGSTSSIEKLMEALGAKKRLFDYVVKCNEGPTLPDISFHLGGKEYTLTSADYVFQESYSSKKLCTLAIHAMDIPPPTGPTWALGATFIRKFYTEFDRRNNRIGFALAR
Nature of the experiment: in vitro test of Nussberger et al.: formation of angiotensin I in human plasma (radioimmunoassay). It is filed as biochemical. Particulars: inhibition of formation of angiotensin I in human plasma. How it is done:
The effect of renin inhibitors is detected inter alia experimentally by means of in vitro tests where the reduction in the formation of angiotensin I is measured in various systems (human plasma, purified human renin together with synthetic or natural renin substrate). The following in vitro test of Nussberger et al. (1987) J. Cardiovascular Pharmacol., Vol. 9, pp. 39-44, is used inter alia. This test measures the formation of angiotensin I in human plasma. The amount of angiotensin I formed is determined in a subsequent radioimmunoassay. The effect of inhibitors on the formation of angiotensin I is tested in this system by adding various concentrations of these substances. The IC50 is defined as the concentration of the particular inhibitor which reduces the formation of angiotensin I by 50%. The compounds of the present invention show inhibitory effects in the in vitro systems at minimal concentrations of about 10^−6 to about 10^−10 mol/I.

`CCO[C@H](C)COCc1ccc([C@@]2(O)CCNC[C@@H]2OCc2ccc3c(c2)N(CCCOC)CCO3)c(CCOC)c1` [Example 378, (3S,4S)-4-[4-((R)-2-Ethoxy-propoxymethyl)-2-(2-methoxy-ethyl)-phenyl]-3-[4-(3-methoxy-propyl)-3,4-dihydro-2H-benzo[1,4]oxazin-6-ylmethoxy]-piperidin-4-ol] registered an IC50 of 9.6 nM.

Consider `COCCCN1CCOc2ccc(CO[C@H]3CNCC[C@]3(O)c3ccc(COCCOC)cc3)cc21` [Example 361, (3S,4S)-4-[4-(2-Methoxy-ethoxymethyl)-phenyl]-3-[4-(3-methoxy-propyl)-3,4-dihydro-2H-benzo[1,4]oxazin-6-ylmethoxy]-piperidin-4-ol], for which the IC50 was 40.4 nM.

In turn, `COCCCN1CCOc2ccc(CO[C@H]3CNCC[C@]3(O)c3ccc(COC[C@@H](C)Cn4cnnn4)cc3)cc21` [Example 371, (3S,4S)-3-[4-(3-Methoxy-propyl)-3,4-dihydro-2H-benzo[1,4]oxazin-6-ylmethoxy]-4-[4-((S)-2-methyl-3-tetrazol-1-yl-propoxymethyl)-phenyl]-piperidin-4-ol] showed an IC50 of 123 nM.

On to `CCO[C@H](C)COCc1ccc([C@@]2(O)CCNC[C@@H]2OCc2ccc3c(c2)N(CCCOC)CCO3)c(OCCOC)c1` [Example 375, (3S,4S)-4-[4-((R)-2-Ethoxy-propoxymethyl)-2-(2-methoxy-ethoxy)-phenyl]-3-[4-(3-methoxy-propyl)-3,4-dihydro-2H-benzo[1.4]oxazin-6-ylmethoxy]-piperidin-4-ol], for which half-maximal inhibition (IC50) was put at 84.3 nM.
